Measured values from patent US8501741B2, “Optically active compound of prulifloxacin for treating infection and preparation method thereof” (priority 2010, dated 2013).

Assays:
[1] = test system: Escherichia coli; assay: Systemic infection in mouse, E. coli; assay type: in vivo; conditions: Kunming mice, intraperitoneal infection with minimal lethal dose, drug by gavage 1 hour after infection, 7 days observation, Bliss method; for ED50: Escherichia coli, ip
Excerpt: (§1) 1. Origin of testing samples:
(§2) • Levo-ofloxacin was commercially available.
(§3) Prulifloxacin was self-made product, prepared according to the method disclosed in the publication J. Med. Chem. 1992, 35, 4727-4738.
(§4) Levo-prulifloxacin, dextro-prulifloxacin, levo-prulifloxacin hydrochloride, levo-prulifloxacin mesylate were self-made, prepared according to the method described in examples (see respective ordinal number in parenthesis following name of testing drug in Table 6);
(§5) 2. Experimental strains: Bacteria for infecting animals were pathogenic strains isolated from clinic;
(§6) 3. Preparation of liquid bacteria culture: 2-3 colonies were picked and inoculated into M-H broth, followed by incubation for 18 hours at 37° C. The culture was diluted appropriately with 5% dried yeast liquid for use.
(§7) 4. Experimental animals: Healthy SPF Kunming mice were selected, with 18-22 g in body weight, half male and half female.
(§8) 5. Determination of minimal lethal dose of bacteria: Mice were divided randomly, resulting in 10 mice in each group, half male and half female. The above-mentioned bacterial cultures in different dilutions were injected intraperitoneally into mice, in the amount of 0.5 mL per mouse, followed by continuous observation for 7 days after infection and recording the number of death mice. The minimal amount of bacteria which caused 100% death of mice was deemed as minimal lethal dose of bacteria and thereby was adopted for infection tests in vivo. 6. Preparation of testing drugs: The testing drugs were prepared with 1% CMC, respectively. 7. Method for infection and treatment: Experimental animals were divided randomly but evenly based on gender and body weight, resulting in 10 mice in each group, half male and half female. Minimal lethal dose of bacteria were injected intraperitoneally into mice in amount of 0.5 mL/mice, respectively. After infected for 1 hour, the testing drugs in different doses were administered to mice by gavage in the amount of 0.2 ml/10 g, respectively. Seven dose groups of 0.05, 0.10, 0.20, 0.40, 0.80, 1.60, 3.20 mg/kg were set up for Escherichia coli while seven dose groups of 0.50, 1.0, 2.0, 4.0, 8.0, 16.0, 32.0 mg/kg were set up for Pseudomonas aeruginosa. Observation was conducted after administration and death statuses of the mice were recorded. A control group was set up and the number of mice which died within 7 days after infection was recorded at the same time. The obtained data were processed by Bliss method to calculate ED50. 8.

[2] = test system: Pseudomonas aeruginosa; assay: Systemic infection in mouse, P. aeruginosa; assay type: in vivo; conditions: Kunming mice, intraperitoneal infection with minimal lethal dose, drug by gavage 1 hour after infection, 7 days observation, Bliss method; for ED50: Pseudomonas aeruginosa, ip
Excerpt: as §1, §2, §3, §4, §5, §6, §7, §8

[3] = Acute toxicity test in NIH mice, limited dosage by gavage; conditions: both sexes, mouse, in vivo, po, 5000 mg/kg, single gavage, 2 weeks observation, read-out: LD50 of oral administration
Procedure: Acute toxicity test was conducted in NIH mice by administrating limited-dosages of drugs.
Levo-prulifloxacin; control groups: racemic prulifloxacin group and blank control group
20 NIH mice in each group, half male and half female, 18˜22 g in body weight, were fasted overnight. Levo-prulifloxacin and racemic prulifloxacin were prepared to a 250 mg/ml suspension with 0.3% CMC, respectively, and then administered to the mice by gavage at once in the amount of 0.2 mL/10 g. After administration, observation was firstly conducted for 4 hours continuously, and then once a day for 2 weeks continuously. Animals' responses to toxicity, appearing time and recovering time thereof were recorded. On Day 2, 4, 8, 11 and 15, body weight of the animals were measured and amounts of feed intake were determined. Observation indexes included diet, appearance, behavior, secretion, excrement and the like Animals' death was recorded, starting time, severity, duration of toxic symptoms and toxic reactions, whether the symptoms or reactions are reversible and the like were also recorded. Animals dying from poisoning and dying animals were dissected roughly in time while all other animals were dissected roughly after completing observation. […] The obtained data were processed by Bliss method to calculate LD50.

[4] = test system: bacteria; conditions: ulifloxacin enantiomers, small samples from chiral preparation chromatographic column; cited from earlier work
[5] = background statement; cited from earlier work

SMILES | ED50 E. coli [1] | ED50 P. aeruginosa [2] | ED50 [1] | ED50 [2] | other results
Cc1oc(=O)oc1CN1CCN(c2cc3c(cc2F)c(=O)c(C(=O)O)c2n3C(C)S2)CC1 (single isomer, unassigned; (+)) [(+) Prulifloxacin] | 1.58 mg/kg | 8.20 mg/kg |  |  | 
Cc1oc(=O)oc1CN1CCN(c2cc3c(cc2F)c(=O)c(C(=O)O)c2n3[C@H](C)S2)CC1.Cl [(−) Prulifloxacin hydrochloride, S-(−)-6-fluoro-1-methyl-7-[4-(5-methyl-2-oxo-1,3-dioxolen-4-yl)methyl-1-piperazinyl]-4-oxo-4H-[1,3]thiazeto[3,2-α]quinoline-3-carboxylic acid hydrochloride] | 0.12 mg/kg | 1.25 mg/kg |  |  | 
CC1COc2c(N3CCN(C)CC3)c(F)cc3c(=O)c(C(=O)O)cn1c23 (centres unmarked) [Ofloxacin, reference compound] |  |  | 0.82 mg/kg | 16.1 mg/kg | 
Cc1oc(=O)oc1CN1CCN(c2cc3c(cc2F)c(=O)c(C(=O)O)c2n3[C@H](C)S2)CC1 [(−) Prulifloxacin, S-(−)-6-fluoro-1-methyl-7-[4-(5-methyl-2-oxo-1,3-dioxolen-4-yl)methyl-1-piperazinyl]-4-oxo-4H-[1,3]thiazeto[3,2-α]quinoline-3-carboxylic acid] |  |  | 0.11 mg/kg | 1.02 mg/kg | LD50 at 2 weeks [3]: > 5000 mg/kg
C[C@@H]1Sc2c(C(=O)O)c(=O)c3cc(F)c(N4CCNCC4)cc3n21 (single isomer, unassigned) [levo-enantiomer] |  |  |  |  | antibacterial activity of levo-enantiomer relative to dextro-enantiomer [4]: 2 to 8 times
Cc1oc(=O)oc1CN1CCN(c2cc3c(cc2F)c(=O)c(C(=O)O)c2n3C(C)S2)CC1 (racemic) [(+/−) Prulifloxacin, (±)6-fluoro-1-methyl-7-[4-(5-methyl-2-oxo-1,3-dioxolen-4-yl)methyl-1-piperazinyl]-4-oxo-4H-[1,3]thiazeto[3,2-α]quinoline-3-carboxylic acid, reference compound] |  |  | 0.53 mg/kg | 4.04 mg/kg | LD50 at 2 weeks [3]: > 5000 mg/kg; half-life [5]: 8 to 9 h; time at which peak blood concentration is attained [5]: 0.5 to 1 h
CS(=O)(=O)O.Cc1oc(=O)oc1CN1CCN(c2cc3c(cc2F)c(=O)c(C(=O)O)c2n3[C@H](C)S2)CC1 [(−) Prulifloxacin mesylate, S-(−)-6-fluoro-1-methyl-7-[4-(5-methyl-2-oxo-1,3-dioxolen-4-yl)methyl-1-piperazinyl]-4-oxo-4H-[1,3]thiazeto[3,2-α]quinoline-3-carboxylic acid mesylate] | 0.11 mg/kg | 1.22 mg/kg |  |  | 
